Results: PubChem BioAssay (NCI)
“And” between values parts separate entries of the source, which are not always exact repeats. Identical values can stand only once.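 Interpolation was linear, between the two tested concentrations surrounding the appropriate level; five concentrations were tested over 48 hours in 96-well plates. GI50: concentration for 50% inhibition of growth. The concentration for full growth arrest is given as TGI.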

How the values were obtained:
Experiment in all cases: inhibition of tumour cell growth, NCI panel, 48 h
HL-60(TB) leukemia = tested on: HL-60(TB) leukemia
TK-10 renal = tested on: TK-10 renal
SNB-75 CNS = tested on: SNB-75 CNS
MDA-MB-435 = tested on: MDA-MB-435
SN12C renal = tested on: SN12C renal
OVCAR-4 ovarian = tested on: OVCAR-4 ovarian
M14 melanoma = tested on: M14 melanoma
SK-MEL-2 melanoma = tested on: SK-MEL-2 melanoma
NCI-H23 lung = tested on: NCI-H23 lung
SK-MEL-28 melanoma = tested on: SK-MEL-28 melanoma
HCT-15 colon = tested on: HCT-15 colon
RPMI-8226 leukemia = tested on: RPMI-8226 leukemia
MDA-MB-231 breast = tested on: MDA-MB-231 breast
K-562 leukemia = tested on: K-562 leukemia

SMILES | TGI (HL-60(TB) leukemia) | TGI (TK-10 renal) | TGI (SNB-75 CNS) | TGI (MDA-MB-435) | TGI (SN12C renal) | TGI (OVCAR-4 ovarian) | TGI (M14 melanoma) | TGI (SK-MEL-2 melanoma) | TGI (NCI-H23 lung) | TGI (SK-MEL-28 melanoma) | TGI (HCT-15 colon) | TGI (RPMI-8226 leukemia) | TGI (MDA-MB-231 breast) | TGI (K-562 leukemia) | GI50 (SK-MEL-2 melanoma)
O=C(/C=C/c1ccc(Cl)c(Cl)c1)Oc1ccc(/C=C2\CCCCC2=O)cc1 | > 100 µM | > 100 µM | > 100 µM | > 100 µM | > 100 µM | > 100 µM | > 100 µM | > 100 µM | > 100 µM | > 100 µM | > 100 µM | > 100 µM | > 100 µM | – | –
NC(=O)N(O)c1cccc(Br)c1 | > 100 µM | > 100 µM | > 100 µM | > 100 µM | > 100 µM | > 100 µM | > 100 µM | > 100 µM | > 100 µM | > 100 µM | > 100 µM | > 100 µM | > 100 µM | > 100 µM | –
C=CCn1c(=O)c(C)cn(/C(=C/C(=O)OCC)C(=O)OCC)c1=O | 5.48 µM | 28.8 µM | 25.6 µM | 28.2 µM | 29.7 µM | 46.4 µM | 28.1 µM | 53.6 µM | 31.8 µM | 32.3 µM | 13.7 µM | 39.5 µM | 29.3 µM | 17.1 µM | –
CC1=C(C(=O)OC(C)C)C(c2ccccc2[N+](=O)[O-])C(C(=O)OC(CO[N+](=O)[O-])CO[N+](=O)[O-])=C(C)N1 (stereo not given) | > 100 µM | > 100 µM | 8.19 µM | 13.2 µM | 52.6 µM | 22.4 µM | 14.3 µM | 9.64 µM | 39.2 µM | 17.9 µM | 16.2 µM | > 100 µM | 35.4 µM | 71.6 µM | –
O/N=C\c1cc(O)c(O)c(/C=N/O)c1 | > 100 µM | > 100 µM | > 100 µM | > 100 µM | > 100 µM | > 100 µM | > 100 µM | > 100 µM | > 100 µM | > 100 µM | > 100 µM | > 100 µM | > 100 µM | > 100 µM | –
Nc1ncc(Cc2nc3ccccc3s2)s1 | > 100 µM | > 100 µM | > 100 µM | > 100 µM | > 100 µM | > 100 µM | > 100 µM | > 100 µM | – | > 100 µM | > 100 µM | > 100 µM | > 100 µM | > 100 µM | –
COc1cc2c(cc1OC)CCN=C2 | > 100 µM | > 100 µM | > 100 µM | > 100 µM | > 100 µM | > 100 µM | > 100 µM | > 100 µM | > 100 µM | > 100 µM | > 100 µM | > 100 µM | > 100 µM | – | –
CC(C)(C)OC(=O)N1CCC23CCCC2C(=O)CC=C13 (stereo not given) | > 100 µM | > 100 µM | > 100 µM | > 100 µM | > 100 µM | > 100 µM | > 100 µM | > 100 µM | > 100 µM | > 100 µM | > 100 µM | – | > 100 µM | > 100 µM | –
COc1cc2c(c(OC)c1OC)C(=O)CC2N (stereo not given) | > 100 µM | > 100 µM | > 100 µM | > 100 µM | – | > 100 µM | > 100 µM | > 100 µM | > 100 µM | > 100 µM | > 100 µM | > 100 µM | > 100 µM | > 100 µM | –
CO[C@H]1O[C@@H]2CO[C@@H](c3ccccc3)O[C@H]2C[C@]12CCC/C=C\CO2 | 54.7 µM | 59.2 µM | 61.8 µM | 26.5 µM | 29.7 µM | > 75 µM | 41.2 µM | 41.4 µM | 68.1 µM | 26.6 µM | 27.5 µM | – | 39.3 µM | 35.7 µM | –
NNC(=O)c1n[nH]nc1SSc1n[nH]nc1C(=O)NN | > 100 µM | > 100 µM | > 100 µM | > 100 µM | > 100 µM | > 100 µM | > 100 µM | > 100 µM | > 100 µM | > 100 µM | > 100 µM | – | > 100 µM | – | –
COC(=O)CCCCC/C(=C\C(=O)C(Cl)(Cl)Cl)OC | 47.6 µM | 86.9 µM | 72.7 µM | 64.7 µM | > 100 µM | 42.1 µM | > 100 µM | 50 µM | > 100 µM | > 100 µM | 68.2 µM | 60.9 µM | > 100 µM | > 100 µM | –
Cc1ccc(S(=O)(=O)N/N=C2\C=C[C@]3(CC2)C(=O)N(C)c2ccccc23)cc1 | > 100 µM | – | > 100 µM | > 100 µM | > 100 µM | > 100 µM | > 100 µM | > 100 µM | > 100 µM | > 100 µM | > 100 µM | > 100 µM | > 100 µM | > 100 µM | –
CC/C(Cl)=N\OC(=O)Nc1ccc(C#N)cc1 | 6.2 µM | 30.1 µM | 28.2 µM | 29.4 µM | 30.3 µM | 23.6 µM | 24.8 µM | 30 µM | 32 µM | 33.8 µM | 21.7 µM | 8.66 µM | 29.1 µM | 4.28 µM | –
Cc1ccc(C2=Nc3c(N)nc(N)nc3NC(c3ccccc3)C2)cc1 (stereo not given) | 20.3 µM | 27.6 µM and 40.2 µM | 29.8 µM and 27.4 µM | 7.25 µM and 6.01 µM | 23.7 µM and 32 µM | 27.6 µM and 29.9 µM | 20.8 µM and 21.8 µM | 22 µM and 17.9 µM | 24.1 µM and 25.6 µM | 24.8 µM and 35.3 µM | 15.9 µM and 12 µM | > 100 µM | 19.7 µM and 28.9 µM | > 100 µM | 9.71 µM and 4.19 µM
CC1(C)CC(=O)c2c(nc3ccc4ccccc4c3c2-c2ccc(NC(=O)CCCCC(=O)Nc3ccc(-c4c5c(nc6ccc7ccccc7c46)CC(C)(C)CC5=O)cc3)cc2)C1 | > 100 µM | > 100 µM | > 100 µM | > 100 µM | > 100 µM | – | > 100 µM | > 100 µM | > 100 µM | > 100 µM | > 100 µM | > 100 µM | > 100 µM | > 100 µM | –
